Marks after values point to notes of the source that are not given here.
Legend:
E. coli (NCTC, 10418) [1] = test: CBR-gal in Columbia agar (solid medium); type: cell-based; details: 2, 6, 10 and 20 mg/100 ml, 37° C. overnight
Description: (§1) The CBR-gal substrate is incorporated into a Columbia agar at the following concentrations: 2, 6, 10 and 20 mg/100 ml, and the medium thus prepared is distributed into dishes. Each dish is inoculated with the following organisms: E. coli (NCTC, 10418), K. pneumoniae (NCTC, 10896), P. rettgeri (NCTC, 7475), E. cloacae (NCTC, 11936), S. marcescens (NCTC, 10211) and S. typhimurium (NCTC, 74). IPTG is incorporated into all these media, at a concentration of 3 mg per 100 ml of Columbia agar. All the dishes are incubated at 37° C. overnight.

[2] = tested on: K. pneumoniae (NCTC, 10896); test: CBR-gal in Columbia agar (solid medium); type: cell-based; details: 2, 6, 10 and 20 mg/100 ml, 37° C. overnight
Description: as §1

[3] = tested on: S. marcescens (NCTC, 10211); test: CBR-gal in Columbia agar (solid medium); type: cell-based; details: 2, 6, 10 and 20 mg/100 ml, 37° C. overnight
Description: as §1

E. cloacae (NCTC, 11936) [4] = test: CBR-gal in Columbia agar (solid medium); type: cell-based; details: 2, 6, 10 and 20 mg/100 ml, 37° C. overnight
Description: as §1

[5] = tested on: E. coli, K. pneumoniae, P. rettgeri, E. cloacae, S. marcescens and S. typhimurium; type: cell-based; details: Columbia agar, 37° C. overnight
Description: as §1

[6] = tested on: S. typhimurium (NCTC, 74); test: CBR-gal in a liquid medium, pink coloration over time (Table V); type: cell-based; design: key: — signifies a lack of coloration, even after 24 hours
Description: (§2) The CBR-gal substrate is tested in a liquid medium, at various concentrations from 0.5 mg/ml to 0.0078 mg/ml. The liquid reaction medium into which the substrate is incorporated is composed of a phosphate buffer, pH 7.4, containing 0.5% of nutrient broth and 0.5% of NaCl. 30 microliters/ml of IPTG are added to the medium for all the substrate concentrations. The strains tested are E. coli (NCTC, 10418), K. pneumoniae (NCTC, 10896), P. rettgeri (NCTC, 7475), E. cloacae (NCTC, 11936), S. marcescens (NCTC, 10211) and S. typhimurium (NCTC, 74), with an inoculum of 0.5 McFarland.

E. coli (NCTC, 10418) [7] = test: as above; type: cell-based; design: key: — signifies a lack of coloration, even after 24 hours
Description: as §2

[8] = tested on: K. pneumoniae (NCTC, 10896); test: as above; type: cell-based; design: key: — signifies a lack of coloration, even after 24 hours
Description: as §2

P. rettgeri (NCTC, 7475) = test: as above; type: cell-based; design: key: — signifies a lack of coloration, even after 24 hours
Description: as §2

[9] = tested on: S. marcescens (NCTC, 10211); test: as above; type: cell-based; design: key: — signifies a lack of coloration, even after 24 hours
Description: as §2

E. cloacae (NCTC, 11936) [10] = test: as above; type: cell-based; design: key: — signifies a lack of coloration, even after 24 hours
Description: as §2

S. marcescens 042 = test: Influence of the incubation atmosphere on revelation of β-D-galactosidase (Table IV); details: 48 H
E. coli 206 = test: as above
E. coli 115 = test: as above
E. cloacae 061 = test: as above
E. faecium 255 = test: as above

O=c1cc2oc3cc(OC4OC(CO)C(O)C(O)C4O)c(Cl)cc3nc-2c2ccccc12 [CBR-gal, 8-chloro-1,2-benzoresorufin-β-D-galactoside]
coloration of the bacterial colony (E. coli (NCTC, 10418) [1]): pink coloration
coloration of the bacterial colony [2]: pink coloration
coloration of the bacterial colony [3]: pink coloration
coloration of the bacterial colony (E. cloacae (NCTC, 11936) [4]): pink coloration
optimum concentration to obtain a clearly visible pink coloration without any background noise [5]: around 10 mg/100 ml
time until pink coloration ([6]; CBR-gal substrate 0.0078 mg/ml): —
time until pink coloration ([6]; CBR-gal substrate 0.0156 mg/ml): —
time until pink coloration ([6]; CBR-gal substrate 0.0313 mg/ml): —
time until pink coloration ([6]; CBR-gal substrate 0.0625 mg/ml): —
time until pink coloration ([6]; CBR-gal substrate 0.125 mg/ml): —
time until pink coloration ([6]; CBR-gal substrate 0.25 mg/ml): —
time until pink coloration ([6]; CBR-gal substrate 0.5 mg/ml): —
time until pink coloration (E. coli (NCTC, 10418) [7]; CBR-gal substrate 0.0078 mg/ml): —
time until pink coloration (E. coli (NCTC, 10418) [7]; CBR-gal substrate 0.0156 mg/ml): —
time until pink coloration (E. coli (NCTC, 10418) [7]; CBR-gal substrate 0.0313 mg/ml): 24 h
time until pink coloration (E. coli (NCTC, 10418) [7]; CBR-gal substrate 0.0625 mg/ml): 4 h
time until pink coloration (E. coli (NCTC, 10418) [7]; CBR-gal substrate 0.125 mg/ml): 4 h
time until pink coloration (E. coli (NCTC, 10418) [7]; CBR-gal substrate 0.25 mg/ml): 2 h
time until pink coloration (E. coli (NCTC, 10418) [7]; CBR-gal substrate 0.5 mg/ml): 2* hours
time until pink coloration ([8]; CBR-gal substrate 0.0078 mg/ml): —
time until pink coloration ([8]; CBR-gal substrate 0.0156 mg/ml): —
time until pink coloration ([8]; CBR-gal substrate 0.0313 mg/ml): 24 h
time until pink coloration ([8]; CBR-gal substrate 0.0625 mg/ml): 4 h
time until pink coloration ([8]; CBR-gal substrate 0.125 mg/ml): 4 h
time until pink coloration ([8]; CBR-gal substrate 0.25 mg/ml): 2 h
time until pink coloration ([8]; CBR-gal substrate 0.5 mg/ml): 2 h
time until pink coloration (P. rettgeri (NCTC, 7475); CBR-gal substrate 0.0078 mg/ml): —
time until pink coloration (P. rettgeri (NCTC, 7475); CBR-gal substrate 0.0156 mg/ml): —
time until pink coloration (P. rettgeri (NCTC, 7475); CBR-gal substrate 0.0313 mg/ml): —
time until pink coloration (P. rettgeri (NCTC, 7475); CBR-gal substrate 0.0625 mg/ml): —
time until pink coloration (P. rettgeri (NCTC, 7475); CBR-gal substrate 0.125 mg/ml): —
time until pink coloration (P. rettgeri (NCTC, 7475); CBR-gal substrate 0.25 mg/ml): —
time until pink coloration (P. rettgeri (NCTC, 7475); CBR-gal substrate 0.5 mg/ml): —
time until pink coloration ([9]; CBR-gal substrate 0.0078 mg/ml): —
time until pink coloration ([9]; CBR-gal substrate 0.0156 mg/ml): —
time until pink coloration ([9]; CBR-gal substrate 0.0313 mg/ml): 24 h
time until pink coloration ([9]; CBR-gal substrate 0.0625 mg/ml): 24 h
time until pink coloration ([9]; CBR-gal substrate 0.125 mg/ml): 24 h
time until pink coloration ([9]; CBR-gal substrate 0.25 mg/ml): 24 h
time until pink coloration ([9]; CBR-gal substrate 0.5 mg/ml): 24 h
time until pink coloration (E. cloacae (NCTC, 11936) [10]; CBR-gal substrate 0.0078 mg/ml): —
time until pink coloration (E. cloacae (NCTC, 11936) [10]; CBR-gal substrate 0.0156 mg/ml): —
time until pink coloration (E. cloacae (NCTC, 11936) [10]; CBR-gal substrate 0.0313 mg/ml): 24 h
time until pink coloration (E. cloacae (NCTC, 11936) [10]; CBR-gal substrate 0.0625 mg/ml): 4 h
time until pink coloration (E. cloacae (NCTC, 11936) [10]; CBR-gal substrate 0.125 mg/ml): 4 h
time until pink coloration (E. cloacae (NCTC, 11936) [10]; CBR-gal substrate 0.25 mg/ml): 2 h
time until pink coloration (E. cloacae (NCTC, 11936) [10]; CBR-gal substrate 0.5 mg/ml): 2 h

OC[C@H]1O[C@@H](Oc2c[nH]c3ccc(Br)c(Cl)c23)[C@H](O)[C@@H](O)[C@H]1O [X-Gal, reference compound]
intensity of coloration (arbitrary scale based on a visual observation) (S. marcescens 042; AE (aerobiosis)): 1
intensity of coloration (arbitrary scale based on a visual observation) (S. marcescens 042; CO2): 2
intensity of coloration (arbitrary scale based on a visual observation) (S. marcescens 042; MAP (microaerophily)): 1
intensity of coloration (arbitrary scale based on a visual observation) (E. coli 206; 24 H, AE (aerobiosis)): 3
intensity of coloration (arbitrary scale based on a visual observation) (E. coli 206; 24 H, ANA (anaerobiosis)): 1
intensity of coloration (arbitrary scale based on a visual observation) (E. coli 206; 24 H, CO2): 3
intensity of coloration (arbitrary scale based on a visual observation) (E. coli 206; 24 H, MAP (microaerophily)): 1
intensity of coloration (arbitrary scale based on a visual observation) (E. coli 206; 48 H, AE (aerobiosis)): 3
intensity of coloration (arbitrary scale based on a visual observation) (E. coli 206; 48 H, ANA (anaerobiosis)): 1
intensity of coloration (arbitrary scale based on a visual observation) (E. coli 206; 48 H, CO2): 3
intensity of coloration (arbitrary scale based on a visual observation) (E. coli 206; 48 H, MAP (microaerophily)): 1
intensity of coloration (arbitrary scale based on a visual observation) (E. coli 115; 24 H, AE (aerobiosis)): 3*
intensity of coloration (arbitrary scale based on a visual observation) (E. coli 115; 24 H, CO2): 2
intensity of coloration (arbitrary scale based on a visual observation) (E. coli 115; 24 H, MAP (microaerophily)): 2
intensity of coloration (arbitrary scale based on a visual observation) (E. coli 115; 48 H, AE (aerobiosis)): 3
intensity of coloration (arbitrary scale based on a visual observation) (E. coli 115; 48 H, ANA (anaerobiosis)): 1
intensity of coloration (arbitrary scale based on a visual observation) (E. coli 115; 48 H, CO2): 2
intensity of coloration (arbitrary scale based on a visual observation) (E. coli 115; 48 H, MAP (microaerophily)): 2
intensity of coloration (arbitrary scale based on a visual observation) (E. cloacae 061; 24 H, AE (aerobiosis)): 2
intensity of coloration (arbitrary scale based on a visual observation) (E. cloacae 061; 24 H, CO2): 2
intensity of coloration (arbitrary scale based on a visual observation) (E. cloacae 061; 24 H, MAP (microaerophily)): 1
intensity of coloration (arbitrary scale based on a visual observation) (E. cloacae 061; 48 H, AE (aerobiosis)): 2
intensity of coloration (arbitrary scale based on a visual observation) (E. cloacae 061; 48 H, ANA (anaerobiosis)): 1
intensity of coloration (arbitrary scale based on a visual observation) (E. cloacae 061; 48 H, CO2): 2
intensity of coloration (arbitrary scale based on a visual observation) (E. cloacae 061; 48 H, MAP (microaerophily)): 1
intensity of coloration (arbitrary scale based on a visual observation) (E. faecium 255; 24 H, AE (aerobiosis)): 1
intensity of coloration (arbitrary scale based on a visual observation) (E. faecium 255; 48 H, AE (aerobiosis)): 3
intensity of coloration (arbitrary scale based on a visual observation) (E. faecium 255; 48 H, CO2): 1
intensity of coloration (arbitrary scale based on a visual observation) (E. faecium 255; 48 H, MAP (microaerophily)): 1

From US7029886B1, “Enzymatic substrate, synthesis method and uses” (Bio Merieux, priority 1999, dated 2006)
